Holding throughout (assay): D-[3H]-serine transport in HRPE cells transfected with transporter cDNA
Holding throughout (assay type): cell-based
Conditions in all cases: D-[3H]-serine 5 μM

In one assay the target is T1, b^0,+AT/rBAT (Mus musculus, UniProt Q9QXA6).
T1 construct: expressed in transfected cells; host or cells: HRPE cells
T1 sequence (Q9QXA6 1-487): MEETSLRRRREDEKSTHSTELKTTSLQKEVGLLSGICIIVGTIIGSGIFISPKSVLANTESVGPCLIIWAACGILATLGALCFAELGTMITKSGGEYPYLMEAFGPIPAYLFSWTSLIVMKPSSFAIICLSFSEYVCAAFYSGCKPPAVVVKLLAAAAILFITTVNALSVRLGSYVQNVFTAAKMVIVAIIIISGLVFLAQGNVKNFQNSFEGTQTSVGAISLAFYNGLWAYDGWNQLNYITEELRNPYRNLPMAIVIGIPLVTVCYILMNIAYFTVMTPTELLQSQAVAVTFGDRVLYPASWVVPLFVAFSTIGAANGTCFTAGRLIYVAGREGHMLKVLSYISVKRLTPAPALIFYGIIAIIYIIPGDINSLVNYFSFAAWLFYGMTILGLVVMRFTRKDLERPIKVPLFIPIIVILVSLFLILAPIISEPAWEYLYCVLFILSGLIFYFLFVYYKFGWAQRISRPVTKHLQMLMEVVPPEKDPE
On the procedure:
(§1) Transport of D-[^3H]-serine (5 μM) was measured in HRPE cells transfected with cDNA of each transporter.
(§2) The present inventors evaluated the function of 10 different amino acid transporter clones with respect to transport of D-serine in heterologous expression systems (FIG. 11). All of these transporters are expressed in the intestinal tract. The list of the transporters tested include three energy-independent, heterodimeric facilitative transporters (L1, L2, and b^0,+), three subtypes of the Na^+-coupled system A (ATA1, ATA2, and ATA3), two subtypes of the Na^+- and H^+-coupled system N (SN1 and SN2), the Na^+-coupled system ATB^0, and the Na^+- and Cl^−-coupled system ATB^0,+. […] The ability to transport D-serine was the highest for the Na^+- and Cl^−-coupled transporter ATB^0,+. ATB^0,+ belongs to the gene family of neurotransmitter transporters whose transport function is energized by multiple driving forces, namely a Na^+ gradient, a Cl^− gradient, and membrane potential. […] Based on the energetics of these two transport systems, ATB^0,+ is expected to play the leading role in this process.

In the next assay the target is T2, ATA3 (Homo sapiens, UniProt Q969I6).
T2 construct: expressed in transfected cells; host or cells: HRPE cells
T2 sequence (Q969I6 1-547): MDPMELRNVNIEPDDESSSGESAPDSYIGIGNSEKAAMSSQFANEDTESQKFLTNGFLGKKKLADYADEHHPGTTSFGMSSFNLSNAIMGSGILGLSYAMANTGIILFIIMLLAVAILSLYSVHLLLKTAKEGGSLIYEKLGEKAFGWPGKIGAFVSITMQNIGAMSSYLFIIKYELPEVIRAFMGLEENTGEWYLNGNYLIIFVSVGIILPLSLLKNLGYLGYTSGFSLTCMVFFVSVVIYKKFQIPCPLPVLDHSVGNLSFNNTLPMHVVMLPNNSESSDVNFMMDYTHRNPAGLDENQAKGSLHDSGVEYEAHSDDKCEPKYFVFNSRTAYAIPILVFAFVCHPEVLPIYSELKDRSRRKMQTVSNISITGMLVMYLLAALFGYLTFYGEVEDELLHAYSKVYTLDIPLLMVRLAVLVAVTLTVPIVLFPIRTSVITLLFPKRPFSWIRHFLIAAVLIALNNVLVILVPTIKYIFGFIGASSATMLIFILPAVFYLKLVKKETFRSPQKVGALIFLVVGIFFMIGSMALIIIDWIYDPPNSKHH
On the procedure:
as §1, §2

The next assay addresses T3, SN1 (Homo sapiens, UniProt Q99624).
T3 construct: expressed in transfected cells; host or cells: HRPE cells
On the procedure: as §1, §2

The target in another assay is T4, system L1 (LAT1/4F2hc) (Homo sapiens, UniProt Q01650).
T4 construct: expressed in transfected cells; host or cells: HRPE cells
Here is the method: as §1, §2

Another assay addresses T5, ATA2 (Homo sapiens, UniProt Q96QD8).
T5 construct: expressed in transfected cells; host or cells: HRPE cells
T5 sequence (Q96QD8 1-506): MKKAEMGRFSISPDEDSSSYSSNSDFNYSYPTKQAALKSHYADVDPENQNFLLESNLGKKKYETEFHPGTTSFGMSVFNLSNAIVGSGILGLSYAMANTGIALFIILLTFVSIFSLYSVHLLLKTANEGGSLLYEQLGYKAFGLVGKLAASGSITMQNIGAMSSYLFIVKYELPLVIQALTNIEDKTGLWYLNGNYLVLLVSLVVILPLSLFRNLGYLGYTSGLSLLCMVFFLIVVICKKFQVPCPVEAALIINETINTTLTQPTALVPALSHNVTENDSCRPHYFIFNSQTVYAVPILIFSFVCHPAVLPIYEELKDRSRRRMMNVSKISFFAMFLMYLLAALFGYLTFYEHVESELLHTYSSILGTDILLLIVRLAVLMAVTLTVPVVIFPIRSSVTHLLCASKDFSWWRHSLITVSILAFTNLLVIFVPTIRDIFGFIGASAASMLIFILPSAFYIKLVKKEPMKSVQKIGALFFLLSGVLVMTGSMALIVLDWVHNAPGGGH
Here is the method: as §1, §2

Another assay concerns the target T6, ATB^0,+ (Mus musculus, UniProt Q9JMA9).
T6 construct: expressed in transfected cells; host or cells: HRPE cells
T6 sequence (Q9JMA9 1-638): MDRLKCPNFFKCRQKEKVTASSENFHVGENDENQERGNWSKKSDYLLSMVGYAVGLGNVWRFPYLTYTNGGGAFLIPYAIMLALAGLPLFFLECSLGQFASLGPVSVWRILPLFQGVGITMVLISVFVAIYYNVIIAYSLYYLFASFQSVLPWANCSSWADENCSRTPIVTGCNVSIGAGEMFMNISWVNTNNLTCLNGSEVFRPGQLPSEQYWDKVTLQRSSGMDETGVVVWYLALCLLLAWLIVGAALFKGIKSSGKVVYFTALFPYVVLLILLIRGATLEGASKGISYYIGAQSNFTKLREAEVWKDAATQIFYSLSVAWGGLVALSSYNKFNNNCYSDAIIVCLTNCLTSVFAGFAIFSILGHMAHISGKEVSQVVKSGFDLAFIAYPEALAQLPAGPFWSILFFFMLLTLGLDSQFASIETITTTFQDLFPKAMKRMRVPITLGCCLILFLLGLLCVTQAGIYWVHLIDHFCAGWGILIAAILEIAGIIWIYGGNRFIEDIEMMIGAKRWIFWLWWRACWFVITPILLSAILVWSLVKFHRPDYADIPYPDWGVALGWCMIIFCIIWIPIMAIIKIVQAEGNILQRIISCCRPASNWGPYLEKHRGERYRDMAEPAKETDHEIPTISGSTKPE
Here is the method:
as §1, §2

T4 sequence (Q01650 whole entry, species assumed): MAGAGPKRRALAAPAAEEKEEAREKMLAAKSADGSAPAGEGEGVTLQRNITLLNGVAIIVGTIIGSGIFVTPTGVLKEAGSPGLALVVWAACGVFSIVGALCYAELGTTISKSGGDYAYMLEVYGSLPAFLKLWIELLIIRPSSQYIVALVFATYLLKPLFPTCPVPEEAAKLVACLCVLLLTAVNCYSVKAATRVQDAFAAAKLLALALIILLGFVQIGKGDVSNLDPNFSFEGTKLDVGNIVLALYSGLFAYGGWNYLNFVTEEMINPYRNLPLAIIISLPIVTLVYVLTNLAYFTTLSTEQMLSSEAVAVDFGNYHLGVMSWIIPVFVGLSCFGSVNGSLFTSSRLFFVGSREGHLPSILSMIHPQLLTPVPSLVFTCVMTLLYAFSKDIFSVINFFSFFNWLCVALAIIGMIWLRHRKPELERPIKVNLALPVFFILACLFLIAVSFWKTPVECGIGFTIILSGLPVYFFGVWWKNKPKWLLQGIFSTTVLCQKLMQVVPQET
T4 sequence (P08195 102-630 partner, species assumed): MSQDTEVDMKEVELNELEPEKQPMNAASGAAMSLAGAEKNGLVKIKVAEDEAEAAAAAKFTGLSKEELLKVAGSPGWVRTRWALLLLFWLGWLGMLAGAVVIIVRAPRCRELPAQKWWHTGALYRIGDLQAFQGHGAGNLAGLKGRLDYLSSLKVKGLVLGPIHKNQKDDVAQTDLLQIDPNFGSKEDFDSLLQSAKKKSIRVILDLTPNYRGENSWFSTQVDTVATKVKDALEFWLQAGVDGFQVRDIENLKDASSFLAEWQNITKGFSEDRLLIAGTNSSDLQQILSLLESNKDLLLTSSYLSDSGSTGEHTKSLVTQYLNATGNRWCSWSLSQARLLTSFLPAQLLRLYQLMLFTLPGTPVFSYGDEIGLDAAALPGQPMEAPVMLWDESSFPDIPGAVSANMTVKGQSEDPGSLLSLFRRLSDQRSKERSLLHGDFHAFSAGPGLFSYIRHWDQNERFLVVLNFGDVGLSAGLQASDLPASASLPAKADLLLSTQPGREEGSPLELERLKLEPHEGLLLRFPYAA
T3 sequence (Q99624 whole entry, species assumed): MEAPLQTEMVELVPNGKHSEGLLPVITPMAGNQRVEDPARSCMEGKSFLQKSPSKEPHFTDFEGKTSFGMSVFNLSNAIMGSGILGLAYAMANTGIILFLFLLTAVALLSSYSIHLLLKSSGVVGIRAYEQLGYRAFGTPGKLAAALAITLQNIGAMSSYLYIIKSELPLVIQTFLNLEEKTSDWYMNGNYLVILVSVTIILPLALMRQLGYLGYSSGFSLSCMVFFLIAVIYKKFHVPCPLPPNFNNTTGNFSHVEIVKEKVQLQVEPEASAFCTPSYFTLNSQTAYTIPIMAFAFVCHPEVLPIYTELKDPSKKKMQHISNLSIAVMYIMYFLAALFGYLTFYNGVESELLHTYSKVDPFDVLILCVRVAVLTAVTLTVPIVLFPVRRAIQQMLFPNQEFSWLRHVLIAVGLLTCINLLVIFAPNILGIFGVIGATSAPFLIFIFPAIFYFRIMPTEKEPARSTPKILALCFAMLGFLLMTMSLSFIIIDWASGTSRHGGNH

On to `N[C@H](CO)C(=O)O` [D-Serine, D-serine], for which the D-serine transport entry is recorded as “did not exhibit detectable D-serine transport activity” at b^0,+AT/rBAT; “did not” on ATA3; “did not transport D-serine” at SN1; “significant ability to transport” on system L1 (LAT1/4F2hc); “showed D-serine transport activity” at ATA2; “highest” at ATB^0,+.

The values above are taken from US20040142317A1, “Use of amino acid transporter atbo,+ as a delivery system for drugs and prodrugs” (priority 2003, published 2004).
